Source: article PMC6389909, “Isothermal Analysis of ThermoFluor Data can readily provide Quantitative Binding Affinities” (Scientific Reports, 2019)

What was measured:
h-CA I [1] = target: T1, h-CA I (Homo sapiens, UniProt P00915); test: Esterase activity assay (4-nitrophenyl acetate), h-CA I; assay type: biochemical; design: purchased Sigma C4396; details: h-CA I 2 µM; 57 °C; noncompetitive inhibition fit; read-out: Ki (µM), from enzyme assay
Experimental: Carbonic anhydrase activity (h-CA I and b-CA II) was measured using a spectrophotometer (Molecular Devices, SpectraMax® i3x) as described elsewhere[73]. h-CA I was used at a final concentration of 2 µM and b-CA II was used at a final concentration of 0.5 µM in the buffer: 100 mM NaCl, 20 mM TRIS, pH 6.1, 1% DMSO. […] All reactions of h-CA I took place at 57 °C and reactions of b-CA II took place at 60 °C. […] Enzyme initial velocity was plotted with different substrate concentration using Prism6. Data were collected for each of the four inhibitors, and the change in initial velocities were analyzed with the “Enzyme-noncompetitive inhibition” equation in Prism6.

h-CA I [2] = target: T1, h-CA I; test: SYPRO Orange DSF, isothermal analysis, carbonic anhydrase h-CA I
Experimental: All proteins (MBP, h-CA I and b-CA II) were used at a final concentration of 2 µM for this assay. SYPRO Orange (Invitrogen S6651) was used at a final concentration of 20X for MBP, and at 10X for the carbonic anhydrases. […] Carbonic anhydrase experiments were carried out in 100 mM NaCl, 20 mM TRIS, 1% DMSO, pH 6.1.
All DSF experiments were carried out with Eppendorf Realplex2 Mastercycler. Each sample was divided to three 50 µL replicates. Sample solutions were dispensed into 96-well optical reaction plate (Thermo Fisher Scientific 4306737) and the plate was sealed with optical PCR plate sheet (Thermo Fisher Scientific AB-1170). Fluorescence intensity was measured via the JOE emission filter (550 nm) and “PTS clear plate” was set as the background for the calibration. […] Melting curves were directly exported from the instrument, and then were analyzed with Prism 6 (GraphPad Software Inc.).
DSF data were analyzed in three steps. First, raw fluorescence data as a function of temperature were fit to a modified form of the thermodynamic equation, as follows:22 ΔG=ΔH(1−T/Tm)−ΔCp(Tm−T+Tln[T/Tm]) 23 KU=e^−ΔG/RT 24 Y(T)=[1/1+KU(mFT+bF)]+[KU/1+KU(mUT+bU)]
Here Equation 24 relates the observed fluorescence signal, Y, as a function of temperature (T). The two terms in this equation correspond to contributions from folded and unfolded protein, respectively. […]

MBP = details: read-out: Kd reported in previous studies; cited from earlier work

T1 sequence (P00915 whole entry): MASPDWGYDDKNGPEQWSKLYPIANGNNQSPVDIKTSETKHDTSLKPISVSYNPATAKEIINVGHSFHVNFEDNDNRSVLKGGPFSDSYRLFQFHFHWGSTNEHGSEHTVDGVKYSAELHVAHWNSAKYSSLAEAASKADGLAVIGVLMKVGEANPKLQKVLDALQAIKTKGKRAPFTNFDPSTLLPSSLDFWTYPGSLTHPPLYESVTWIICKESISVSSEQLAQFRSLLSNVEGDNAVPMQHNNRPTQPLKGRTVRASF

Structure (SMILES)	Ki (h-CA I [1]) [µM]	EC50 (h-CA I [2]) [nM]	Kd (h-CA I [2]; Kd (µM), from DSF, h-CA I, 57 °C, 2 µM protein, no denaturant) [µM]	Kd (MBP) [nM]
NS(=O)(=O)C(F)(F)F [TFMSA, trifluoromethanesulfonamide]	< 1	1400	< 0.5	
OC[C@H]1O[C@H](O[C@H]2[C@H](O)[C@@H](O)C(O)O[C@@H]2CO)[C@H](O)[C@@H](O)[C@@H]1O (mixture of isomers) [maltose]				500 to 2000
